From patent publication US20240245677A1, “SELECTED COMPOUNDS FOR TARGETED DEGRADATION OF BRD9” (C4 THERAPEUTICS, INC., priority 2021, published 2024)
Values belong to the compound of their own block, whether it stands above or below them.

How the values were obtained:
[1] = biological target: T1, BRD9 (Homo sapiens, UniProt Q9H8M2); experiment: BRD9 HiBiT degradation assay in 293T.166 (HEK293T.166) cells; type: cell-based; set-up: endogenously expressing BRD9 with HiBiT fusion tag via CRISPR; host or cells: HEK293T.166 (293T.166, BRD9-HiBiT HEK293, LgBiT by lentivirus); details: for DC50: 2.0 hours, read-out: HiBiT-Degradation 293T.166 BRD9 2.0 hours (DC50)
T1 sequence (Q9H8M2 1-597): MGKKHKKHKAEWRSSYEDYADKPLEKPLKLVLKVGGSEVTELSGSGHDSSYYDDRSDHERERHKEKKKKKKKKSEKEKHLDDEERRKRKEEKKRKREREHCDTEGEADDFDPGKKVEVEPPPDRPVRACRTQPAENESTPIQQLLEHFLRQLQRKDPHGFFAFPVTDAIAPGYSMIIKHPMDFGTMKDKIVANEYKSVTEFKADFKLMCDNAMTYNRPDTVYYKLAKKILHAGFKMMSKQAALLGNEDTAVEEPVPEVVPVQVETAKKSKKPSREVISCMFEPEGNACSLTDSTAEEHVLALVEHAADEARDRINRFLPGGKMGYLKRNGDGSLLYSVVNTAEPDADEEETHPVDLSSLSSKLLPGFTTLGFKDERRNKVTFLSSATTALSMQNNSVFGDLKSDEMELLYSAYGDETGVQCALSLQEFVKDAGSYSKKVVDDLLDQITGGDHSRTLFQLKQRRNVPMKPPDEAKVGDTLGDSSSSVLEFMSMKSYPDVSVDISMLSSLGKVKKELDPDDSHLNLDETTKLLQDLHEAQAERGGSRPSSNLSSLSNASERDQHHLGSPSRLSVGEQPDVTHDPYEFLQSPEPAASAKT
Description: Selected compounds were tested in a BRD9 degradation assay using the HiBit Method.
Dulbecco's modified Eagle medium (DMEM) without phenol red and fetal bovine serum (FBS) were purchased from Gibco (Grand Island, NY, USA). Nano-Glo® HiBiT Lytic Assay System was purchased from Promega (Madison, WI, USA). 293T.166 (BRD9-HiBiT) cell line, endogenously expressing BRD9 with HiBiT fusion tag via CRISPR and ectopically expressing LgBiT tag, was purchased from Promega (Madison, WI, USA). 293T.167 (BRD7-HiBiT) cell line, endogenously expressing BRD7 with HiBiT fusion tag via CRISPR and ectopically expressing LgBiT tag, was purchased from Promega (Madison, WI, USA). 293T.92 (BRD4-HiBiT) cell line, endogenously expressing BRD4 with HiBiT fusion tag via CRISPR and ectopically expressing LgBiT tag, was generated in-house. Cell culture flasks and 384-well microplates were acquired from VWR (Radnor, PA, USA).
BRD9 degradation was determined based on quantification of luminescent signal using Nano-Glo® HiBiT Lytic Assay kit. Test compounds were added to the 384-well plate from a top concentration of 10 μM with 11 points, half log titration in duplicates. 293T.166 cells were added into 384-well plates at a cell density of 10,000 cells per well. The plates were kept at 37° C. with 5% CO2 for 2 hours. BRD7 and BRD4 degradation was similarly determined with 293T.167 cells and 293T.92 cells, respectively. The cells treated in the absence of the test compound were the negative control and the cells without Nano-Glo® HiBiT Lytic reagent were the positive control. After 2-hour incubation, Nano-Glo® HiBiT Lytic Assay reagents were added to the cells. Luminescence was acquired on EnVision® Multilabel Reader (Catalog No. 2104-0010, Perkin Elmer Inc., Dumfries, VA, USA).
This assay evaluates the degradation of BRD9 induced by treatment with Compound 1 or Compound 2 as measured by luminescence using Nano-Glo® HiBiT Lytic Assay System in HEK293 cells CRISPR-edited to endogenously express HiBiT tagged BRD9 and exogenously express LgBiT protein.
Nano-Glo® HiBiT Lytic Assay System was purchased from Promega (Catalog No. N3050, Madison, WI, USA). BRD9-HiBiT HEK293 cells were purchased from Promega (Catalog No. CS302348, Madison, WI, USA). The cells were maintained in Dulbecco's modified Eagle medium (DMEM) without phenol red (Catalog No. 12430112, ThermoFisher Scientific, Waltham, MA, USA) supplemented with 10% fetal bovine serum (FBS) (Catalog No. 16000-044, Gibco, Grand Island, NY, USA) at 37° C. in an atmosphere of 5% CO2 in air. The HiBiT polypeptide tag was introduced into the C-terminus of the endogenous BRD9 locus by CRISPR-Cas9 and the LgBiT protein was introduced via Lentiviral infection to produce the modified HEK293T.166 cell line. The HiBiT polypeptide and LgBiT protein allow reconstitution of NanoBiT enzyme in the cells. The Nano-Glo® HiBiT Lytic Substrate was then added and activated by the NanoBiT enzyme following cell lysis to produce a luminescent signal that is directly proportional to the amount of HiBiT-tagged BRD9.
The HEK293T.166 cells were routinely sub-cultured to maintain cell density between 30-80% confluence, not to exceed 20 passages. Cells were washed with PBS pH 7.4 (Catalog No. 10010049, ThermoFisher Scientific, Waltham, MA, USA), trypsinized for 5 minutes at 37° C., and resuspended in fresh growth media without phenol red. An aliquot was diluted 2× with Trypan Blue solution 0.4% (Catalog No. 15250061, ThermoFisher Scientific, Waltham, MA, USA) and cell count determined. Cell concentration was adjusted with growth media without phenol red to 3.3×10^5 cells/mL.
Compound 1 or Compound 2 was prepared by dissolving neat compounds in DMSO (Catalog No. D8418, Sigma-Aldrich, Inc., St. Louis, MO, USA) to generate 10 mM stock solution and stored at −20° C. […]

[2] = Hygroscopicity by DVS at 25° C.; type: physicochemical
Description: Hygroscopicity of Form A and Form N was investigated by DVS at 25° C. […] Form A converted to Form K after the DVS test. Form K is a metastable hydrate. It reverted back to Form A after exposure to ambient condition.
Hygroscopicity of the free base Pattern A* and the urea cocrystal Form P were evaluated by DVS at 25° C.

[3] = Solubility study in aqueous media at 37° C.; details: for Solubility: target 10 mg/5 mL, LOQ: 50 μg/mL
[4] = pH 4.5, 50 mM acetate buffer, 2 h
[5] = pH 4.5, 50 mM acetate buffer, 24 h

Compound: COc1cc(-c2cn(C)c(=O)c(C)c2C)cc(OC)c1CN1CC[C@@H](N2CCN(c3ccc(N[C@@H]4CCC(=O)NC4=O)cc3F)CC2)C(F)(F)C1 [Compound 4]
DC50 ([1]; 293T.166 cells): < 100 nM

Compound: COc1cc(-c2cn(C)c(=O)c(C)c2C)cc(OC)c1CN1CC[C@H](N2CCN(c3ccc(N[C@H]4CCC(=O)NC4=O)cc3F)CC2)C(F)(F)C1.NC(N)=O [Urea cocrystal Pattern P]
XRPD after DVS test [2]: No form change
water uptake from 40% RH to 90% RH ([2]; DVS): <90% RH, 1.6% water
water uptake from 40% RH to 95% RH ([2]; DVS): 3.1% water uptake from
1st desorp. (%) ([2]; DVS, 0% RH): 0.0%
2nd sorp. (%) ([2]; DVS, 0% RH): 0.0%
1st desorp. (%) ([2]; DVS, 10% RH): 2.2%
2nd sorp. (%) ([2]; DVS, 10% RH): 1.2%
1st desorp. (%) ([2]; DVS, 20% RH): 3.1%
2nd sorp. (%) ([2]; DVS, 20% RH): 2.8%
1st desorp. (%) ([2]; DVS, 30% RH): 3.7%
2nd sorp. (%) ([2]; DVS, 30% RH): 3.3%
1st desorp. (%) ([2]; DVS, 40% RH): 4.2%
1st sorp. (%) ([2]; DVS, 40% RH): 4.0%
2nd desorp. (%) ([2]; DVS, 40% RH): 4.2%
2nd sorp. (%) ([2]; DVS, 40% RH): 3.7%
1st desorp. (%) ([2]; DVS, 50% RH): 4.5%
1st sorp. (%) ([2]; DVS, 50% RH): 4.2%
2nd desorp. (%) ([2]; DVS, 50% RH): 4.5%
2nd sorp. (%) ([2]; DVS, 50% RH): 4.1%
1st desorp. (%) ([2]; DVS, 60% RH): 4.7%
1st sorp. (%) ([2]; DVS, 60% RH): 4.4%
2nd desorp. (%) ([2]; DVS, 60% RH): 4.7%
2nd sorp. (%) ([2]; DVS, 60% RH): 4.4%
1st desorp. (%) ([2]; DVS, 70% RH): 5.0%
1st sorp. (%) ([2]; DVS, 70% RH): 4.7%
2nd desorp. (%) ([2]; DVS, 70% RH): 5.0%
2nd sorp. (%) ([2]; DVS, 70% RH): 4.8%
1st desorp. (%) ([2]; DVS, 80% RH): 5.2%
1st sorp. (%) ([2]; DVS, 80% RH): 5.1%
2nd desorp. (%) ([2]; DVS, 80% RH): 5.3%
2nd sorp. (%) ([2]; DVS, 80% RH): 5.1%
1st desorp. (%) ([2]; DVS, 90% RH): 5.8%
1st sorp. (%) ([2]; DVS, 90% RH): 5.6%
2nd desorp. (%) ([2]; DVS, 90% RH): 5.8%
2nd sorp. (%) ([2]; DVS, 90% RH): 5.6%
1st desorp. (%) ([2]; DVS, 95% RH): 7.1%
1st sorp. (%) ([2]; DVS, 95% RH): 7.1%
2nd desorp. (%) ([2]; DVS, 95% RH): 7.3%
2nd sorp. (%) ([2]; DVS, 95% RH): 7.3%
pH ([3]; FaSSIF-v1, pH 6.5, 2 h): pH: 6.5
Solubility ([3]; FaSSIF-v1, pH 6.5, 2 h): <LOQ
pH ([3]; FaSSIF-v1, pH 6.5, 24 h): pH: 6.5
Solubility ([3]; FaSSIF-v1, pH 6.5, 24 h): <LOQ
pH ([3]; FeSSIF-v1, pH 5.0, 2 h): pH: 5.0
Solubility ([3]; FeSSIF-v1, pH 5.0, 2 h): 0.28 mg/mL
pH ([3]; FeSSIF-v1, pH 5.0, 24 h): pH: 4.9
Solubility ([3]; FeSSIF-v1, pH 5.0, 24 h): 0.34 mg/mL
pH ([3]; SGF, pH 1.8, 2 h): pH: 2.4
Solubility ([3]; SGF, pH 1.8, 2 h): >2 mg/mL
pH ([3]; SGF, pH 1.8, 24 h): pH: 2.4
Solubility ([3]; SGF, pH 1.8, 24 h): >2 mg/mL
pH ([3]; pH 1.0 (0.1N HCl), 2 h): pH: 1.0
Solubility ([3]; pH 1.0 (0.1N HCl), 2 h): >2 mg/mL
pH ([3]; pH 1.0 (0.1N HCl), 24 h): pH: 1.0
Solubility ([3]; pH 1.0 (0.1N HCl), 24 h): >2 mg/mL
pH [3, 4]: pH: 4.6
Solubility [3, 4]: 0.24 mg/mL
pH [3, 5]: pH: 4.5
Solubility [3, 5]: 0.14 mg/mL

Next, values leading:

DC50 ([1]; 293T.166 cells): < 100 nM
Compound: COc1cc(-c2cn(C)c(=O)c(C)c2C)cc(OC)c1CN1CC[C@@H](N2CCN(c3ccc(N[C@H]4CCC(=O)NC4=O)cc3F)CC2)C(F)(F)C1 [Compound 3]

DC50 ([1]; 293T.166 cells): < 100 nM
Compound: COc1cc(-c2cn(C)c(=O)c(C)c2C)cc(OC)c1CN1CCC(N2CCN(c3ccc(NC4CCC(=O)NC4=O)cc3F)CC2)C(F)(F)C1 (stereo not shown) [Compound 5]

% BRD9 Remaining Relative to Vehicle Control at 2 hr, Mean ([1]; 0.010 nM): 103.0%
% BRD9 Remaining Relative to Vehicle Control at 2 hr, Mean ([1]; 0.032 nM): 95.9%
% BRD9 Remaining Relative to Vehicle Control at 2 hr, Mean ([1]; 0.100 nM): 105.0%
% BRD9 Remaining Relative to Vehicle Control at 2 hr, Mean ([1]; 0.315 nM): 103.3%
% BRD9 Remaining Relative to Vehicle Control at 2 hr, Mean ([1]; 0.997 nM): 105.4%
% BRD9 Remaining Relative to Vehicle Control at 2 hr, Mean ([1]; 3.15 nM): 100.2%
% BRD9 Remaining Relative to Vehicle Control at 2 hr, Mean ([1]; 10.0 nM): 87.1%
% BRD9 Remaining Relative to Vehicle Control at 2 hr, Mean ([1]; 31.7 nM): 75.4%
% BRD9 Remaining Relative to Vehicle Control at 2 hr, Mean ([1]; 100 nM): 49.0%
% BRD9 Remaining Relative to Vehicle Control at 2 hr, Mean ([1]; 316 nM): 33.1%
% BRD9 Remaining Relative to Vehicle Control at 2 hr, Mean ([1]; 999 nM): 39.0%
DC50 ([1]; 293T.166 cells): < 100 nM
Emax ([1]; BRD9-HiBiT, 293T.166 cells, 2 hours, read-out: Mean Emax (%) ± SD): 33.1 ± 9.92%
Dmax ([1]; HEK293T.166 cells, 2-hour treatment, read-out: maximal degradation of BRD9): ~70%
Compound: COc1cc(-c2cn(C)c(=O)c(C)c2C)cc(OC)c1CN1CC[C@H](N2CCN(c3ccc(N[C@@H]4CCC(=O)NC4=O)cc3F)CC2)C(F)(F)C1 [Compound 2]
